Literature values, collected in patent US20230270735A1, “TOPICAL FORMULATION” (INCANTHERA (R&D) LTD, priority 2020, published 2023).
Where two headings read alike, the source gives them in different places.

Tests used:
[1] = tested on: actinic keratoses (AK); details: 4 months
[2] = target: PARP-1 (Homo sapiens, UniProt P09874); details: at a concentration of 50 μmol L^−1, in vitro
[3] = not given; remark: listed apart in the source
[4] = tested on: nonmelanoma skin cancers

PARP-1, sequence (P09874 whole entry, species assumed): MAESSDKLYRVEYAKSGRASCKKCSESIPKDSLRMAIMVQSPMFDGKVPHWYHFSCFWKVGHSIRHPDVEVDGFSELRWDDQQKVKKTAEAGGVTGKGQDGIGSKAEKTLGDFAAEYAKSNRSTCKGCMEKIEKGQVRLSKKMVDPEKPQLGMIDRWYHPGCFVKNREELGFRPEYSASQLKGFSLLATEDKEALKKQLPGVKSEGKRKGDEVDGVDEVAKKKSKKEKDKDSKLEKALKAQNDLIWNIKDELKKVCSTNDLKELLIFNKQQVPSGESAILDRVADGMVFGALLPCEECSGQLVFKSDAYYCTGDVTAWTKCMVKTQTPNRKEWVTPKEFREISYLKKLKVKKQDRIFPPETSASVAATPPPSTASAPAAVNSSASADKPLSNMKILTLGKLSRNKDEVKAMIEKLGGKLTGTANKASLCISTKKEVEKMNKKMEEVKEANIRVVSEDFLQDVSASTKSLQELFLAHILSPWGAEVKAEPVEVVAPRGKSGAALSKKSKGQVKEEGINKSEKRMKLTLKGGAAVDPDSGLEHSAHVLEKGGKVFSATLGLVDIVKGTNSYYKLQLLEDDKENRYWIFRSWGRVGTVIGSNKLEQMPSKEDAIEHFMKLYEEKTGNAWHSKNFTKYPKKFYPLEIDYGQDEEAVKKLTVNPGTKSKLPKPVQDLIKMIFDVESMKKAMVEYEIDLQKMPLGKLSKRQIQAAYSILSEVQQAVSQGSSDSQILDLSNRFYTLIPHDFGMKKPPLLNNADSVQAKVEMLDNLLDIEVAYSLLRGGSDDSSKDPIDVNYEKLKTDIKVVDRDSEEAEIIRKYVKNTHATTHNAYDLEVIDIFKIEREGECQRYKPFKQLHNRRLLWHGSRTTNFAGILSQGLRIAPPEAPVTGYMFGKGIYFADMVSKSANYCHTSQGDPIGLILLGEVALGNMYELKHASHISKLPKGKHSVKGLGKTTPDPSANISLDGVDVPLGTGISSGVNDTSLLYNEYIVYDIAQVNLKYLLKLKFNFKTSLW

NC(=O)c1cccnc1 [NAM, pyridine-3-carboxamide]
reduction in AK versus baseline ([1]; study 1, oral 500 mg twice daily): 35%
reduction in AK versus baseline ([1]; study 2, oral 500 mg once daily): 29%
inhibition of PARP-1 [2]: 60%
Log P (octanol/water): −0.4
range of peak plasma concentrations ([3]; 1 g (~0.5 g/M^2) oral dose, healthy volunteers): 81 to 158 µmol/L
peak plasma concentrations ([3]; oral 500 mg, extrapolated by Malesu et al. (22) from Stratford data): ~80 µmol/L
rate of new nonmelanoma skin cancers lowered compared with placebo ([4]; oral 500 mg twice a day, 12 months): 23%
CD4^+ helper T cells and cytotoxic CD8^+ T cells in the tumour microenvironment of melanomas, compared with placebo ([4]; oral NAM group): significant increase
systemic adverse effects ([4]; oral doses 500-1,000 mg/day): without significant systemic adverse effects
